“And” between values parts separate entries of the source, which are not always exact repeats. Identical values can stand only once. “Also recorded” adds a separate entry of the source.
Columns and labels:
C. elegans = C. elegans lifespan assay on antibiotic-treated E. coli; type: in vivo, Caenorhabditis elegans
Experimental: For longitudinal assays, E. coli Keio mutants were initially cultivated in M9 minimum medium at 37° C. for 16 hours. Subsequently, bacteria at stationary phase were reinoculated in fresh M9 medium with a low dose of cephaloridine at 37° C. for another 16 hours. A 100 μL aliquot of the bacteria culture was seeded onto each 6-cm NGM plate and maintained at 20° C. Fresh bacteria plates were prepared every other day for transfer to alive worms. Caenorhabditis elegans var. Bristol N2 strain was obtained from the Caenorhabditis Genome Center. The strain was maintained on standard nematode growth medium (NGM) agar plates seeded with corresponding bacteria at 20° C. Age synchronization of C. elegans was achieved by isolating eggs as previously described [PMID: 4858229]. Lifespan assays were performed as previously described [PMID: 25554789]. In brief, age-synchronized C. elegans at the L1 stage were seeded onto designated bacteria lawns. Fresh bacteria-containing plates were made every other day for live C. elegans transfer. Once reaching adulthood as Day 0, worms were transferred to new bacteria plates. Death events were scored upon each transfer. Bagged worms and vulva protruding worms were censored throughout the analysis. Each assay contained 80-100 animals with 30-40 animals per 6 cm plate.

[1] = system: cps operon in commensal E. coli; test: cps G-R reporter bacteria from mouse ileum, in vivo imaging (GFP-to-RFP ratio); set-up: species or system C57BL6 mice; conditions: for increase in GFP-to-RFP ratio: oral gavage plus drinking water, 3 hours, ileum
Experimental: In vivo imaging: Co-housed female C57BL6 mice received cps G-R reporter E. coli at 1×10^8 CFU per 100 mL through distilled drinking water. The bacteria-containing water was prepared and replaced daily for three days continuously. […] Luminal content from the ileum was collected and processed for imaging bacteria from in vivo samples immediately after euthanasia as previously described [PMID: 34428120]. In brief, the ileum sections were collected and then finely minced by a pair of iris scissors in 2 mL 1×PBS. Samples were then vortexed for 1 minute and filtered with a sterile cell strainer (40 μm) to remove the tissue debris. The microbiota was washed 3 times with 1.5 mL PBS by centrifugation (15,000×g, 3 min) and then resuspended in 0.1 mL PBS for imaging.
The cps G-R reporter strain was introduced to wild-type C57B6 mice through drinking water, followed by cephaloridine administration through a single-dose oral gavage and cephaloridine-containing water for 3 hours, which allowed for sufficient intestinal transit time [PMID: 23915679] and E. coli turnover time [PMID: 26392213] for optimal dosing (FIG. 3E). […] The luminal content of mice ileum was harvested after 3 hours of cephaloridine administration and were imaged for fluorescence.

PBP1a = PBP1a (Escherichia coli, UniProt P02918); conditions: E. coli, literature; cited from earlier work
cps operon = test: Disk diffusion assay for cps induction, SG20781 cpsB::lacZ reporter; type: cell-based, E. coli; conditions: SG20781, filter paper disks 10 or 100 μg, 24 hours at 37° C.
Experimental: For antibiotic screening targeting cps expression, the SG20781 strain (MC4100 lon+cpsB10::lacZ Mu-immλ) was used. The bacteria were cultured overnight at 37° C. in Luria-Broth (LB) medium and evenly plated on X-gal (40 μg/mL) supplemented LB agar plates, and incubated overnight.
E. coli strain SG20781 was used to assess antibiotic cps induction via disk diffusion as previously described [PMID: 14553918]. In brief, an overnight bacteria culture was spread onto LB agar containing 0.1 mg ml-1 5-bromo-4-chloro-3-indolyl-β-D-galactoside (X-gal). […] The soaked filter papers were placed onto the bacteria-seeding plates and incubated for 24 hours at 37° C.
Certain β-lactam antibiotics trigger the overexpression of the cps operon in E. coli [PMID: 14553918]. To validate this finding, a disk diffusion assay was performed using SG20781, an E. coli strain that harbors a LacZ reporter for the cps operon transcriptional regulation. Using a colorimetric assay, an increased level of […] reacts with X-gal, resulting in an intensified blue coloration as a result of the transcriptional up-regulation of the cps operon.

[2] = PMID 9165537; cited from earlier work
cps promoter = test: cps G-R reporter bacteria imaging in vitro (GFP-to-RFP ratio); type: cell-based, E. coli; conditions: low-dose cephaloridine, cultured at 37° C.
Experimental: For high-resolution imaging, rph1 ilvG rfb-50 attL (Psyn135::mcherry <FRT>) attHKPR218 (cps G-R reporter strain), a genetically modified strain derived from MG1655 (genotype rph1 ilvG rfb-50), was generated. pPR218, integrated at the HK site, encodes Pcps::sfGFP and chloramphenicol resistance.
In vitro imaging: The cps G-R reporter strain was cultured in M9 minimal medium. Bacteria culture was harvested at an OD600 of 0.6. For bacteria imaging, 1 μL of the culture was loaded onto a 1% low-melt agarose pad made with M9 medium [PMID: 23680982].
MG1655, a human-derived commensal K12 strain, was treated with a low dose of cephaloridine at 37° C., which induced colanic acid production (FIG. 3A). […] To determine whether cephaloridine activates cps expression in a commensal bacterium in a mammalian host, MG1655 was engineered as shown in FIG. 3C to express GFP under the control of the cps promoter and to constitutively express RFP under a synthetic promoter syn135, resulting in the cps G-R reporter strain. […] The luminal content of mice ileum was harvested after 3 hours of cephaloridine administration and were imaged for fluorescence. […]

PBP1a, sequence (P02918 whole entry, the tested form may be a part): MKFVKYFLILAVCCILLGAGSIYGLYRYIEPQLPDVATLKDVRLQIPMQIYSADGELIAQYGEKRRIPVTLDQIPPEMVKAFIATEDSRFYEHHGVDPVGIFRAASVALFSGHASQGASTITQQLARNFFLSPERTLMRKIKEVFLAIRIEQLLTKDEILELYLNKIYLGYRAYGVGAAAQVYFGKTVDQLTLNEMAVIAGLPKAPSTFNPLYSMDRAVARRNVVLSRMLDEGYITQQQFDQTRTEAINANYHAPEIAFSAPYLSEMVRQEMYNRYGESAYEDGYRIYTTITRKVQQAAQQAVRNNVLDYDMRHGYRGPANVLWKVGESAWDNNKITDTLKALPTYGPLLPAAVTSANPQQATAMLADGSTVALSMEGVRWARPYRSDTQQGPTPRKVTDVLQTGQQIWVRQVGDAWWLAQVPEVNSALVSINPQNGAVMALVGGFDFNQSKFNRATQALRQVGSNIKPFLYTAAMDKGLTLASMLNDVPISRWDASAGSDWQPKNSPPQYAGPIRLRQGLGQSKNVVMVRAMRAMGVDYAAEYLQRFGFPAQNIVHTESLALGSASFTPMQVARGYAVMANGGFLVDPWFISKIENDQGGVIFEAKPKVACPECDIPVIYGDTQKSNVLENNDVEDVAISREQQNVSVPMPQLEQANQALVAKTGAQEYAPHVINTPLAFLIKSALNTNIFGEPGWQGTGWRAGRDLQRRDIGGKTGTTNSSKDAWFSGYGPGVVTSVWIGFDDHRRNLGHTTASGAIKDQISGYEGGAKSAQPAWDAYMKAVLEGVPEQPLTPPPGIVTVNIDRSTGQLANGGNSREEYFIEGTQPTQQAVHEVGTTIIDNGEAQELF

**Q.** For `O=C(Cc1cccs1)N[C@@H]1C(=O)N2C(C(=O)[O-])=C(C[n+]3ccccc3)CS[C@H]12` [cephaloridine], which “C. elegans lifespan extension vs vehicle” value (C. elegans; MG1655 E. coli treated with 1.8 μg/mL) is on record?
**A.** Its value is 13% and 13.3%.

**Q.** What about the C. elegans lifespan (C. elegans; cephaloridine-treated rcsA deletion mutant E. coli) of the same compound?
**A.** Its C. elegans lifespan is “failed to extend lifespan”.

**Q.** And the C. elegans lifespan (C. elegans; cephaloridine-treated rcsD deletion mutant E. coli)?
**A.** The C. elegans lifespan was “effectively promoted longevity”.

**Q.** And the “C. elegans lifespan extension vs vehicle” value (C. elegans; wildtype E. coli treated with 1.8 μg/mL)?
**A.** The value was 14%.

**Q.** And the “cps operon induction in the mouse intestine” value ([1]; 4 μg/mL dose)?
**A.** Its value is “induced the cps operon”.

**Q.** And the “increase in GFP-to-RFP ratio” value ([1]; 4 μg/mL)?
**A.** Its value is 13%.

**Q.** And the “cps operon induction in the mouse intestine” value ([1]; 8 μg/mL dose)?
**A.** Its value is “failed to exert this effect”.

**Q.** What about the “increase in GFP-to-RFP ratio” value ([1]; 8 μg/mL) of the same compound?
**A.** Its value is “no such increase”.

**Q.** And the “binding to PBP1a” value (PBP1a)?
**A.** Its value is “primarily binds to PBP1a”.

**Q.** And the “cps induction (blue coloration)” value (cps operon)?
**A.** Its value is “promote various shades of blue coloration”.

**Q.** What about the “absorption after oral administration” value [2] of the same compound?
**A.** The value was “poorly absorbed; also recorded: near-zero absorption”.

**Q.** And the oral bioavailability [2]?
**A.** Its oral bioavailability is “extremely low oral bioavailability”.

**Q.** What about the “increase in GFP-to-RFP intensity ratio” value (cps promoter) of the same compound?
**A.** Its value is 20%.
